Experimental findings from patent US6964760B2, “Antimicrobial polypeptide, nucleic acid, and methods of use” (University of Florida Research Foundation, priority 1997, dated 2005) are described below.

Common to all, as to format: cell-based
Assay [1] relates to Gram positive organisms. Put plainly: Overlay technique, Gram positive organisms. To be noted: including Streptococcus mitts, Streptococcus pyogenes, Staphylococcus aureus, Actinomyces species. As to the method: (§1) Three drops of an overnight THB culture of the indicator strain were mixed with 3 ml of molten top agar and poured evenly over the surface of the plate. After an additional 24 hours of incubation, clear zones surrounding the test strain were measured.
(§2) The inhibitory factor inhibited 124 of 125 S. mutans strains tested. […] The following table summarizes the spectrum of activity found for the lantibiotic.

The test system of assay [2] is other strains of S. mutans. Put plainly: Sterility of agar taken from clear zones. To be noted: loopfuls of agar taken from clear zones were sterile.
Assay [3] relates to S. mutans strains. Put plainly: Overlay technique, panel of S. mutans strains. Conditions: mutacin 1140 produced by a JH1140 strain. As to the method:
as §1, §2

In assay [4] the test system is Gram-negative bacteria. Put plainly: Overlay technique, Gram-negative bacteria. The procedure: as §1, §2

For mutacin 1140, the “Sensitivity of most Gram positive organisms to inhibitory activity” value in assay [1] is given as “sensitive”. Moreover, in assay [2], the “Kind of effect on other strains of S. mutans” value is on record as “bacteriocidal”. The “S. mutans strains inhibited of strains tested” value in assay [3] is 124 of 125. Further, in assay [4], the “Inhibition of Gram-negative bacteria” value is recorded as “mostly resistant”.
